The first assay concerns Rattus norvegicus. In words: Antihypertensive activity in spontaneously hypertensive Wistar-Okamoto rat assessed as maximal fall in mean arterial pressure at 5 mg/kg, po. In kind it is functional, Artery.
Conditions: not given
In the case of `CC(C)(C)NCC(O)COc1ccc(-c2nc(C(F)(F)F)c[nH]2)cc1` (configuration not stated), the Activity was 49 mmHg.
On the same count and under the same terms, the value for `CC(C)(C)NCC(O)COc1ccccn1` (configuration not stated) was 10 mmHg.
For the compound `CC(C)(C)NCC(O)COc1ncccc1S(C)(=O)=O` (configuration not stated), the Activity amounted to 12 mmHg.
Still for that read-out and setting: under `Cc1ccc(C#N)c(OCC(O)CNC(C)(C)C)n1` (configuration not stated) stands 5 mmHg.

The next assay relates to Rattus norvegicus. In words: Antihypertensive activity in spontaneously hypertensive Wistar-Okamoto rat assessed as maximal fall in mean arterial pressure at 20 mg/kg, ip. In kind it is functional, Artery. Particulars: route intraperitoneal.
With `CN(C)CCOc1ncccc1C#N`, the Activity worked out at 49 mmHg.
Same read-out and setting: under `CC(C)(C)NCC(O)COc1ccc(-c2ncc[nH]2)cc1` (configuration not stated) stands 33 mmHg.

A further assay deals with Canis familiaris. As to the kind of experiment: Vasodilatory activity in anesthetized dog assessed as increase in iliac blood flow […] measured after 2000 ug/kg, iv beta-adrenergic receptor blocker timolol administration. In kind it is functional, Canis lupus familiaris, Artery.
Conditions: not given
On to `CC(C)(C)NC[C@H](O)COc1ncccc1C#N.Cl`, for which the Activity was 90 mL/min.
Regarding `CC(C)(C)NCC(O)COc1ccc(-c2nc(C(F)(F)F)c[nH]2)cc1` (configuration not stated), the Activity turned out to be 15 mL/min.
On the same count and under the same terms, under `CC(C)(C)NCC(O)COc1ccc(C#N)cn1` (configuration not stated) stands 19 mL/min; under `CC(C)(C)NCC(O)COc1ccccn1` (configuration not stated), 30 mL/min; under `CN(C)CCOc1ncccc1C#N`, 72 mL/min.
`Cc1ccc(C#N)c(OCC(O)CNC(C)(C)C)n1` (configuration not stated): the Activity was 43 mL/min.

A further assay relates to Canis familiaris. As to the kind of experiment: In vivo beta-adrenergic receptor blockade in iv dosed anesthetized dog assessed as inhibition of isoproterenol-induced tachycardia. It is filed as functional. The note with it: Canis lupus familiaris.
Broadly, the ED50 is the dose at which the effect has come halfway, by size or by number of responders. Consider `CC(C)(C)NC[C@H](O)COc1ncccc1C#N.Cl`, for which the 50% effective dose (ED50) amounted to 0.0015 mg/kg.
The same measure, in the same setting: under `CC(C)(C)NC[C@H](O)COc1nsnc1N1CCOCC1` [TIMOLOL] stands 0.0024 mg/kg; under `CC(C)(C)NCC(O)COc1ccc(-c2nc(C(F)(F)F)c[nH]2)cc1` (configuration not stated), 0.009 mg/kg; under `CC(C)(C)NCC(O)COc1ccccn1` (configuration not stated), 0.01 mg/kg.
The same measure, in the same setting: the value for `Cc1ccc(C#N)c(OCC(O)CNC(C)(C)C)n1` (configuration not stated) was less than 0.01 mg/kg; that for `Cc1cnc(-c2ccc(OC[C@@H](O)CNC(C)(C)C)cc2)[nH]1` was 0.03 mg/kg.
Turning to `CC(C)(C)NC[C@H](O)COc1ccc(-c2ncc[nH]2)cc1`, the 50% effective dose (ED50) is 0.067 mg/kg.

In the next assay the test system is Canis familiaris. As to the kind of experiment: In vivo beta-adrenergic receptor blockade in iv dosed anesthetized dog assessed as inhibition of isoproterenol-induced hypotension. It is filed as functional. The note with it: Canis lupus familiaris.
On to `CC(C)(C)NC[C@H](O)COc1ncccc1C#N.Cl`, for which the 50% effective dose (ED50) turned out to be 0.0052 mg/kg.
Same read-out and setting: under `CC(C)(C)NC[C@H](O)COc1nsnc1N1CCOCC1` [TIMOLOL] stands 0.0013 mg/kg; under `CC(C)(C)NCC(O)COc1ccc(-c2nc(C(F)(F)F)c[nH]2)cc1` (configuration not stated), 0.036 mg/kg.
The same measure, in the same setting: under `CC(C)(C)NCC(O)COc1ccccn1` (configuration not stated) stands 0.07 mg/kg; under `Cc1ccc(C#N)c(OCC(O)CNC(C)(C)C)n1` (configuration not stated), less than 0.01 mg/kg; under `Cc1cnc(-c2ccc(OC[C@@H](O)CNC(C)(C)C)cc2)[nH]1`, greater than 1 mg/kg.
On to `CC(C)(C)NC[C@H](O)COc1ccc(-c2ncc[nH]2)cc1`, for which the ED50 is greater than 1 mg/kg.

Another assay deals with Rattus norvegicus. As to the kind of experiment: Antihypertensive activity in spontaneously hypertensive Wistar-Okamoto rat assessed as duration of action at 5 mg/kg, po. In kind it is functional.
Conditions: not given
`CC(C)(C)NCC(O)COc1ccc(-c2nc(C(F)(F)F)c[nH]2)cc1` (configuration not stated): the Time worked out at 18 h.

Another assay relates to Canis familiaris. In words: Vasodilatory activity in anesthetized dog assessed as increase in iliac blood flow at 250 mg, ia measured after 800 ug/kg, iv beta-adrenergic receptor blocker timolol administration. In kind it is functional, Canis lupus familiaris, Artery.
Conditions: not given
With `CC(C)(C)NC[C@H](O)COc1ncccc1C#N.Cl`, the Activity was 62 mL/min.

The next assay concerns Rattus norvegicus. In words: Antihypertensive activity in spontaneously hypertensive Wistar-Okamoto rat assessed as maximal fall in mean arterial pressure at 0.078 mg/kg, po. In kind it is functional, Artery.
Conditions: not given
On to `CC(C)(C)NC[C@H](O)COc1ncccc1C#N.Cl`, for which the Activity is 19 mmHg.

A further assay has as its system Rattus norvegicus. As to the kind of experiment: Antihypertensive activity in spontaneously hypertensive Wistar-Okamoto rat assessed as duration of action at 1.25 mg/kg, po. It is filed as functional.
Conditions: not given
As for `CC(C)(C)NC[C@H](O)COc1ncccc1C#N.Cl`, the Time is greater than 12 h.
The same measure, in the same setting: under `CC(C)(C)NCC(O)COc1ccc(-c2nc(C(F)(F)F)c[nH]2)cc1` (configuration not stated) stands 18 h.

The next assay concerns Rattus norvegicus. In words: Antihypertensive activity in spontaneously hypertensive Wistar-Okamoto rat assessed as duration of action at 0.312 mg/kg, po.
Conditions: not given
It is filed as functional.
`CC(C)(C)NC[C@H](O)COc1ncccc1C#N.Cl`: the Time stood at 1 h.
For the compound `CC(C)(C)NC[C@H](O)COc1nsnc1N1CCOCC1` [TIMOLOL], the Time was 8 h.
For the compound `CC(C)(C)NCC(O)COc1ccc(-c2nc(C(F)(F)F)c[nH]2)cc1` (configuration not stated), the Time turned out to be 7 h.

The next assay deals with Rattus norvegicus. In words: Antihypertensive activity in spontaneously hypertensive Wistar-Okamoto rat assessed as duration of action at 20 mg/kg, ip. In kind it is functional. Particulars: route intraperitoneal.
Take `CN(C)CCOc1ncccc1C#N`: the Time is 1 h.
Turning to `CC(C)(C)NCC(O)COc1ccc(-c2ncc[nH]2)cc1` (configuration not stated), the Time was 1 h.

A further assay relates to Rattus norvegicus. As to the kind of experiment: Antihypertensive activity in spontaneously hypertensive Wistar-Okamoto rat assessed as maximal fall in mean arterial pressure at 1.25 mg/kg, po. In kind it is functional, Artery.
Conditions: not given
For `CC(C)(C)NC[C@H](O)COc1ncccc1C#N.Cl`, the Activity worked out at 47 mmHg.
The same measure, in the same setting: under `CC(C)(C)NC[C@H](O)COc1nsnc1N1CCOCC1` [TIMOLOL] stands -1 mmHg; under `CC(C)(C)NCC(O)COc1ccc(-c2nc(C(F)(F)F)c[nH]2)cc1` (configuration not stated), 36 mmHg.

For the next assay, the system named is Canis familiaris. In words: Vasodilatory activity in anesthetized dog assessed as increase in iliac blood flow at 64 mg, ia measured after 800 ug/kg, iv beta-adrenergic receptor blocker timolol administration. In kind it is functional, Canis lupus familiaris, Artery.
Conditions: not given
Consider `CC(C)(C)NC[C@H](O)COc1ncccc1C#N.Cl`, for which the Activity amounted to 38 mL/min.

In a further assay the test system is Rattus norvegicus. As to the kind of experiment: Antihypertensive activity in spontaneously hypertensive Wistar-Okamoto rat assessed as maximal fall in mean arterial pressure at 0.312 mg/kg, po.
Conditions: not given
In kind it is functional, Artery.
On to `CC(C)(C)NC[C@H](O)COc1ncccc1C#N.Cl`, for which the Activity is 30 mmHg.
The same measure, in the same setting: the value for `CC(C)(C)NC[C@H](O)COc1nsnc1N1CCOCC1` [TIMOLOL] was 32 mmHg.
Turning to `CC(C)(C)NCC(O)COc1ccc(-c2nc(C(F)(F)F)c[nH]2)cc1` (configuration not stated), the Activity is reported as 21 mmHg.

The test system of a further assay is Canis familiaris. As to the kind of experiment: Vasodilatory activity in anesthetized dog assessed as increase in iliac blood flow […] measured after 800 ug/kg, iv beta-adrenergic receptor blocker timolol administration.
Conditions: not given
It is filed as functional, Canis lupus familiaris, Artery.
Regarding `CC(C)(C)NCC(O)COc1ccc(C#N)cn1` (configuration not stated), the Activity was -1 mL/min.
The same measure, in the same setting: the value for `CC(C)(C)NCC(O)COc1ncccc1S(C)(=O)=O` (configuration not stated) was 8 mL/min.

The subject of another assay is Canis familiaris. As to the kind of experiment: Vasodilatory activity in anesthetized dog assessed as increase in iliac blood flow […] measured after 320 ug/kg, iv beta-adrenergic receptor blocker timolol administration. In kind it is functional, Canis lupus familiaris, Artery.
Conditions: not given
For `CC(C)(C)NCC(O)COc1ccc(-c2ncc[nH]2)cc1` (configuration not stated), the Activity turned out to be 31 mL/min.

Another assay deals with Rattus norvegicus. In words: Antihypertensive activity in spontaneously hypertensive Wistar-Okamoto rat assessed as maximal fall in mean arterial pressure at 20 mg/kg, po. It is filed as functional, Artery.
Conditions: not given
For the compound `CC(C)(C)NCC(O)COc1ccc(C#N)cn1` (configuration not stated), the Activity amounted to 15 mmHg.
Take `CC(C)(C)NCC(O)COc1ccccn1` (configuration not stated): the Activity came to 33 mmHg.
On the same count and under the same terms, the value for `CC(C)(C)NCC(O)COc1ncccc1S(C)(=O)=O` (configuration not stated) was 13 mmHg.

The subject of another assay is Rattus norvegicus. In words: Antihypertensive activity in spontaneously hypertensive Wistar-Okamoto rat assessed as maximal fall in mean arterial pressure at 0.625 mg/kg, po. It is filed as functional, Artery.
Conditions: not given
As to `CC(C)(C)NC[C@H](O)COc1nsnc1N1CCOCC1` [TIMOLOL], the Activity is listed as 0 mmHg.

Another assay deals with Canis familiaris. In words: Vasodilatory activity in anesthetized dog assessed as increase in iliac blood flow […] ia.
Conditions: not given
It is filed as functional, Canis lupus familiaris, Artery.
In the case of `CC(C)(C)NC[C@H](O)COc1ncccc1C#N.Cl`, the Activity was found to be 98 mL/min.
With `CC(C)(C)NCC(O)COc1ccc(-c2nc(C(F)(F)F)c[nH]2)cc1` (configuration not stated), the Activity is 79 mL/min.
The same measure, in the same setting: the value for `CC(C)(C)NCC(O)COc1ccc(C#N)cn1` (configuration not stated) was -13 mL/min; that for `CC(C)(C)NCC(O)COc1ncccc1S(C)(=O)=O` (configuration not stated) was 10 mL/min; that for `CN(C)CCOc1ncccc1C#N` was 100 mL/min.
The same measure, in the same setting: the value for `CC(C)(C)NCC(O)COc1ccc(-c2ncc[nH]2)cc1` (configuration not stated) was 36 mL/min.
Turning to `Cc1ccc(C#N)c(OCC(O)CNC(C)(C)C)n1` (configuration not stated), the Activity was determined as 70 mL/min.

The values are drawn from ChEMBL document CHEMBL3244122, “Symbiotic approach to drug design: antihypertensive beta-adrenergic blocking agents” (J Med Chem, 1979).
